Here are results for seven molecules from ChEMBL document CHEMBL2074507, “Transport of small organic cations in the rat liver. The role of the organic cation transporter OCT1” (Naunyn Schmiedebergs Arch Pharmacol, 1996).

The target in data set [1] is T1, Solute carrier family 22 member 1 (Rattus norvegicus, UniProt Q63089).
T1 sequence (Q63089 whole entry): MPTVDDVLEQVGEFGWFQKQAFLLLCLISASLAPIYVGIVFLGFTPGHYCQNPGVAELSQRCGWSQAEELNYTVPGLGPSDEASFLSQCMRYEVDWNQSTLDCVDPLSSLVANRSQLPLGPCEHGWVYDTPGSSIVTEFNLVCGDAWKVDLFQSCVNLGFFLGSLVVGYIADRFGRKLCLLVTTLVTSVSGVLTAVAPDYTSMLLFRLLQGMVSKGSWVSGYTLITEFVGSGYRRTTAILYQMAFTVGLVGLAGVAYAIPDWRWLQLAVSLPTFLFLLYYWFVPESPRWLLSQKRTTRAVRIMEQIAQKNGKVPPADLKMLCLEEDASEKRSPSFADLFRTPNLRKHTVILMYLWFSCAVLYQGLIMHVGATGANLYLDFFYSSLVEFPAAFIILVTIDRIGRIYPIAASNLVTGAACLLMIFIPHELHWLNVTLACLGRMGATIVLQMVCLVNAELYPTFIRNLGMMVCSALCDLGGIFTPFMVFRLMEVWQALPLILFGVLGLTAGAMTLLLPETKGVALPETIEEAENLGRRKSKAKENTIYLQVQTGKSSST
As to the kind of experiment: TP_TRANSPORTER: inhibition of MPP+ uptake in OCT1-expressing HEK293 cells. It counts as functional, cell-based.

Substrate in data set [2]: C[n+]1ccc(-c2ccccc2)cc1
Kind of data set: TP_TRANSPORTER: uptake in OCT1-expressing HEK293 cells. Format: functional, cell-based.

With `CCN1/C(=C/c2ccc3ccccc3[n+]2CC)C=Cc2ccccc21`, the inhibitory constant (Ki) in data set [1] stood at 500 nM.

Turning to `Clc1cccc(Cl)c1N=C1NCCN1` [CLONIDINE], the inhibitory constant (Ki) in data set [1] was determined as 1400 nM.

In turn, `C[C@]12C[C@H](O)[C@H]3[C@@H](CCC4=CC(=O)CC[C@@]43C)[C@@H]1CC[C@@H]2C(=O)CO` [CORTICOSTERONE] registered a Ki in data set [1] of 72000 nM.

As for `CC[n+]1c(CC2C=C(C)N=C(c3ccccc3)N2C)ccc2ccccc21` (configuration not stated) [Cyanine-863], in data set [1], the Ki stood at 670 nM.

`CC(C)N1/C(=C\c2cc[n+](C(C)C)c3ccccc23)C=Cc2ccccc21` [DISPROCYNIUM24] displayed a Ki in data set [1] of 110 nM.

Take `COc1cc(C(O)CNC(C)C)ccc1O` (configuration not stated) [METIPRENALINE]: in data set [1], the Ki was 25000 nM.

B1: Solute carrier family 22 member 1 (Rattus norvegicus) (protein)
chain: T1 sequence (Q63089 whole entry)
As for B1, the Michaelis constant (Km) in data set [2] turned out to be 13 µM.

For orientation: Ki means the dissociation constant of the complex between target and ligand, obtained from inhibition or displacement. High values mean weaker binding, low ones tighter binding. In general, Km refers to the substrate concentration at which the rate is half of its maximum.
